Reference: patent US20130281398A1, “TREATMENT OF DISEASES BY EPIGENETIC REGULATION” (RVX Therapeutics Inc., priority 2012, published 2013)

How the values were obtained:
Brd4 bromodomain 1 = target: T1, Brd4 bromodomain 1 (Homo sapiens, UniProt O60885); test: TR-FRET inhibition of tetra-acetylated histone H4 binding to Brd4 bromodomain 1; details: tetra-acetylated histone H4 peptide and Brd4 bromodomain 1, 2 hours at room temperature
T1 construct: Illustrative results with the first bromodomain of Brd4; made in house; host or cells: E. coli BL21(DE3)
Method: Proteins were cloned and overexpressed with a N-terminal 6×His tag, then purified by nickel affinity followed by size exclusion chromatography. Briefly, E. coli BL21(DE3) cells were transformed with a recombinant expression vector encoding N-terminally Nickel affinity tagged bromodomains from Brd2, Brd3, Brd4. Cell cultures were incubated at 37° C. with shaking to the appropriate density and induced overnight with IPTG. The supernatant of lysed cells was loaded onto Ni-IDA column for purification. Eluted protein was pooled, concentrated and further purified by size exclusion chromatography. Fractions representing monomeric protein are pooled, concentrated, aliquoted, and frozen at −80° C. for use in subsequent experiments.
Binding of tetra-acetylated histone H4 and BET bromodomains was confirmed by a Time Resolved Fluorescence Resonance Energy Transfer (TR-FRET) method. N-terminally His-tagged bromodomains (200 nM) and biotinylated tetra-acetylated histone H4 peptide (25-50 nM, Millipore) were incubated in the presence of Europium Cryptate-labeled streptavidin (Cisbio Cat. #610SAKLB) and XL665-labeled monoclonal anti-His antibody (Cisbio Cat. #61 HISXLB) in a white 96 well microtiter plate (Greiner). For inhibition assays, serially diluted test compound was added to these reactions in a 0.2% final concentration of DMSO. Final buffer concentrations were 30 mM HEPES pH 7.4, 30 mM NaCl, 0.3 mM CHAPS, 20 mM phosphate pH 7.0, 320 mM KF, 0.08% BSA). After 2 hours incubation at room temperature, the fluorescence by FRET was measured at 665 and 620 nm by a SynergyH4 plate reader (Biotek). The binding inhibitory activity was shown by a decrease in 665 nm fluorescence relative to 620 nm. IC50 values were determined from a dose response curve.

c-myc = test: Inhibition of c-myc expression (mRNA, real-time PCR) in MV4-11 cells; assay type: cell-based; set-up: key: Active: Compounds with an IC50 value less than 30 uM were deemed to be active; details: c-myc mRNA in human AML MV4-11 cells, 3 hours incubation
Method: MV4-11 cells (2.5×10^4 cells) were plated in 96 well U-bottom plates with test compound or DMSO (0.1%), and incubated for 3 hours at 37° C. Cells were then harvested by centrifugation, lysed, and mRNA was isolated using the mRNA catcher plus kit (Invitrogen). Reverse transcription of the mRNA and duplex amplification of the c-myc and cyclophilin cDNAs was performed using the RNA Ultrasense kit (Invitrogen) and a ViiA7 real-time PCR machine (Applied Biosystems). IC50 values were determined from a dose response curve.

Human AML MV-4-11 cells = test: Inhibition of cell proliferation in human AML MV-4-11 cells; assay type: cell-based; set-up: key: Active: Compounds with an IC50 value less than 30 uM were deemed to be active; details: 72 hours, CellTiter Aqueous One
Method: MV4-11 cells: 96-well plates were seeded with 5×10^4 cells per well of exponentially growing human AML MV-4-11 (CRL-9591) cells and immediately treated with two-fold dilutions of test compounds, ranging from 30 μM to 0.2 μM. Triplicate wells were used for each concentration, as well as a media only and three DMSO control wells. The cells and compounds were incubated at 37° C., 5% CO2 for 72 hours before adding 20 μL of the CellTiter Aqueous One Solution (Promega) to each well and incubating at 37° C., 5% CO2 for an additional 3-4 hours. The absorbance was taken at 490 nm in a spectrophotometer and the percentage of proliferation relative to DMSO-treated cells was calculated after correction from the blank well. IC50 were calculated using the GraphPad Prism software.

IL-6 = details: in vivo; cited from earlier work
[1] = test system: bacterial-induced inflammation and sepsis; details: murine model; Lamotte et al. (2012); cited from earlier work
[2] = test system: NUT (nuclear protein in testis) midline carcinoma (NMC); details: murine xenograft models of NMC; Filippakopoulos et al. (2010); cited from earlier work
multiple myeloma = details: associated with cell cycle arrest and cellular senescence, Delmore et al. (2011); cited from earlier work

Row | SMILES | FRET activity (<50 uM) (Brd4 bromodomain 1) | other results
1 | COc1cc(OC)c2c(=O)[nH]c(-c3cc(C)c(CNC(C)=O)c(C)c3)nc2c1 [Example 32, N-(4-(5,7-dimethoxy-4-oxo-3,4-dihydroquinazolin-2-yl)-2,6-dimethylbenzyl)acetamide] | Active | c-myc activity (<30 uM) (c-myc): Inactive; cell proliferation activity (<30 uM) (Human AML MV-4-11 cells): Inactive
2 | COc1cc(OC)c2c(=O)[nH]c(-c3cc(C)c(OCCNS(=O)(=O)C(C)C)c(C)c3)nc2c1 [Example 37, N-(2-(4-(5,7-dimethoxy-4-oxo-3,4-dihydroquinazolin-2-yl)-2,6-dimethylphenoxy)ethyl)propane-2-sulfonamide] | Active | –
3 | COc1cc(OC)c2c(=O)[nH]c(-c3cc(C)c(OCCNC(C)C)c(C)c3)nc2c1 [Example 38, 2-(4-(2-(isopropylamino)ethoxy)-3,5-dimethylphenyl)-5,7-dimethoxyquinazolin-4(3H)-one] | Active | c-myc activity (<30 uM) (c-myc): Active; cell proliferation activity (<30 uM) (Human AML MV-4-11 cells): Active
4 | COc1cc(OC)c2c(=O)[nH]c(-c3ccc(OCCNC(C)=O)c(C)c3)nc2c1 [Example 39, N-(2-(4-(5,7-dimethoxy-4-oxo-3,4-dihydroquinazolin-2-yl)-2-methylphenoxy)ethyl)acetamide] | Active | –
5 | COc1cc(OC)c2c(=O)[nH]c(-c3cc(C)c(OCCN(C)C)c(C)c3)nc2c1 [Example 40, 2-(4-(2-(dimethylamino)ethoxy)-3,5-dimethylphenyl)-5,7-dimethoxyquinazolin-4(3H)-one] | Active | –
6 | COc1cc(OC)c2c(=O)[nH]c(-c3cc(C)c(OCCN(C)C(C)=O)c(C)c3)nc2c1 [Example 41, N-(2-(4-(5,7-dimethoxy-4-oxo-3,4-dihydroquinazolin-2-yl)-2,6-dimethylphenoxy)ethyl)-N-methylacetamide] | Active | –
7 | COc1cc(OC)c2c(=O)[nH]c(-c3cc(C)c(OCCNC=O)c(C)c3)nc2c1 [Example 42, N-(2-(4-(5,7-dimethoxy-4-oxo-3,4-dihydroquinazolin-2-yl) 2,6-dimethylphenoxy)ethyl)formamide] | Active | –
8 | COc1cc(OC)c2c(=O)[nH]c(-c3cc(C)c(OCCN(C)C=O)c(C)c3)nc2c1 [Example 43, N-(2-(4-(5,7-dimethoxy-4-oxo-3,4-dihydroquinazolin-2-yl) 2,6-dimethylphenoxy)ethyl)-N-methylformamide] | Active | –
9 | COc1cc(OC)c2c(=O)[nH]c(-c3cc(C)c(OCCNS(=O)(=O)N(C)C)c(C)c3)nc2c1 [Example 44, N-(2-(4-(5,7-dimethoxy-4-oxo-3,4-dihydroquinazolin-2-yl)-2,6-dimethylphenoxy)ethyl)dimethylamino-N-sulfonamide] | Active | –
10 | COc1cc(OC)c2c(=O)[nH]c(-c3cc(C)c(OCCNC#N)c(C)c3)nc2c1 [Example 45, N-(2-(4-(5,7-dimethoxy-4-oxo-3,4-dihydroquinazolin-2-yl) 2,6-dimethylphenoxy)ethyl)cyanamide] | Active | –
11 | COc1cc(OC)c2c(=O)[nH]c(-c3cc(C)c(OCCNc4cc(C)on4)c(C)c3)nc2c1 [Example 46, 2-(3,5-dimethyl-4-(2-(5-methylisoxazol-3-ylamino)ethoxy)phenyl)-5,7-dimethoxyquinazolin-4(3H)-one] | Active | –
12 | COc1cc(OC)c2c(=O)[nH]c(-c3cc(C)c(OCCNc4ncccn4)c(C)c3)nc2c1 [Example 47, 2-(3,5-dimethyl-4-(2-(pyrimidin-2-ylamino)ethoxy)phenyl)-5,7-dimethoxyquinazolin-4(3H)-one] | Inactive | –
13 | COc1cc(OC)c2c(=O)[nH]c(-c3cc(C)c(OCCNc4ccon4)c(C)c3)nc2c1 [Example 48, 2-(4-(2-(isoxazol-3-ylamino)ethoxy)-3,5-dimethylphenyl)-5,7-dimethoxyquinazolin-4(3H)-one] | Active | –
14 | COc1cc(OC)c2c(=O)[nH]c(-c3cc(C)c(OCCNc4nc(OC)cc(OC)n4)c(C)c3)nc2c1 [Example 49, 2-(4-(2-(4,6-dimethoxypyrimidin-2-ylamino)ethoxy)-3,5-dimethylphenyl)-5,7-dimethoxyquinazolin-4(3H)-one] | Inactive | –
15 | COc1cc(OC)c2c(=O)[nH]c(-c3cc(OC)c(CCCO)c(OC)c3)nc2c1 [Example 50, 2-[4-(3-hydroxy-propyl)-3,5-dimethoxyphenyl]-5,7-dimethoxy-3H-quinazolin-4-one] | Active | –
16 | COc1cc(OC)c2c(=O)[nH]c(-c3ccc(CCCO)c(OC)c3)nc2c1 [Example 51, 2-[4-(3-hydroxy-propyl)-3-methoxy-phenyl]-5,7-dimethoxy-3H-quinazolin-4-one] | Active | –
17 | COc1cc(OC)c2c(=O)[nH]c(-c3ccc4cc(CCO)[nH]c4c3)nc2c1 [Example 52, 2-[2-(2-hydroxyethyl)-1H-indol-6-yl]-5,7-dimethoxy-3H-quinazolin-4-one] | Active | –
18 | COc1cc2c(cc1-c1c(C)noc1C)ncc1[nH]c(=O)n([C@H](C)c3ccccn3)c12 [I-BET151] | – | IL-6 expression (IL-6): decrease IL-6 expression; bacterial-induced inflammation and sepsis [1]: suppress bacterial-induced inflammation and sepsis
19 | CCNC(=O)C[C@@H]1N=C(c2ccc(Cl)cc2)c2cc(OC)ccc2-n2c(C)nnc21 [I-BET] | – | IL-6 expression (IL-6): decrease IL-6 expression
20 | Cc1sc2c(c1C)C(c1ccc(Cl)cc1)=N[C@@H](CC(=O)OC(C)(C)C)c1nnc(C)n1-2 [JQ1] | – | antitumor activity [2]: potent antitumor activity; antiproliferative effect (multiple myeloma): potent antiproliferator
